The values that follow come from ChEMBL document CHEMBL4715712 (Bioorg Med Chem Lett, 2016).

Data set [1] can be described thus: Ulcerogenic activity in rat assessed as average number of ulcers at 50 mg/kg, po administered once daily for 3 consecutive days and measured after 1 hr post last dose (reference value: 0). Format: toxicity, organism-based. To be noted: in vivo.
Data set [2] is described as follows: Ulcerogenic activity in rat assessed as ulcer index at 50 mg/kg, po administered once daily for 3 consecutive days and measured after 1 hr post last dose. Format: toxicity, organism-based. To be noted: in vivo, 72 h, time 3 day.
Data set [3] is described as follows: Inhibition of soya bean 15-LOX by enzyme immunoassay. The arrangement: species or system Glycine max.
The next data set deals with Rattus norvegicus. Put plainly: Antiinflammatory activity against po dosed Wistar albino rat model of carrageenan-induced foot paw edema after 3 hrs. The format is functional. In general terms: Carrageenan injected into the paw causes an acute inflammation.
Data set [4] addresses T1, Prostaglandin G/H synthase 1 (Ovis aries, UniProt P05979).
T1 sequence (P05979 whole entry): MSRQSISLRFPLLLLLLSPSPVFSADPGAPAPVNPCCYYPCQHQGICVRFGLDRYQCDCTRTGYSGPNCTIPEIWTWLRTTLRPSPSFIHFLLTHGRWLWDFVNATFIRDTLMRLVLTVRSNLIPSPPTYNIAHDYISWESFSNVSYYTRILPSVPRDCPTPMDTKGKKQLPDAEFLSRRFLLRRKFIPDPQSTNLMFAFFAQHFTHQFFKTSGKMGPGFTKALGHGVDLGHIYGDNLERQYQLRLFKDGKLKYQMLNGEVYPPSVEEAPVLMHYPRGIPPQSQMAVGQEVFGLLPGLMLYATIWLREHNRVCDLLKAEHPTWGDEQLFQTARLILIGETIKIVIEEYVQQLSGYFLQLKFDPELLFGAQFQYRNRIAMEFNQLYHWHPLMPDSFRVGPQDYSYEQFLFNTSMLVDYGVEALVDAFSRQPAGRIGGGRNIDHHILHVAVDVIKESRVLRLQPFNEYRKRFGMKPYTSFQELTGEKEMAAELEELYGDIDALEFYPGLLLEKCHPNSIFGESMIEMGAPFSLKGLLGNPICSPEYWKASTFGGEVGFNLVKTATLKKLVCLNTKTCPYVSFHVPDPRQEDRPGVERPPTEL
The data set can be described thus: Inhibition of Ovine COX-1 assessed as decrease in prostaglandin production using arachidonic acid as substrate pretreated for 15 mins followed by substrate addition and measured after 2 mins by enzyme immunoassay.

Data set [5] in a line: Ulcerogenic activity in rat assessed as incidence of ulcer at 50 mg/kg, po administered once daily for 3 consecutive days and measured after 1 hr post last dose (reference value: 0%). Format: toxicity, organism-based. To be noted: in vivo.
Data set [6] in a line: Ulcerogenic activity in rat assessed as average severity of ulcers at 50 mg/kg, po administered once daily for 3 consecutive days and measured after 1 hr post last dose (reference value: 0). The format is toxicity, organism-based. To be noted: in vivo.

For the compound `COc1cccc([C@@H]2CC(c3sc(-c4ccccc4)nc3C)=NN2c2ccc(S(C)(=O)=O)cc2)c1OC`, the Activity in data set [1] stood at 0.4; in data set [5], 20%; in data set [6] it was 0.25. In data set [2], the UI is on record as 2.65. Also, the half-inhibitory concentration (IC50) in data set [3] worked out at 5.6 µM; in data set [4] it was 6.5 µM. This compound displayed a 50% effective dose (ED50) with Rattus norvegicus of 70 µmol/kg.
`COc1cccc([C@@H]2CC(c3sc(-c4ccccc4)nc3C)=NN2c2ccc(S(N)(=O)=O)cc2)c1OC`: the Activity came out at 0.2 in data set [1], 20% in data set [5] and 0.73 in data set [6]. Further, in data set [2], the UI amounted to 2.93. For the same compound, the 50% inhibitory concentration (IC50) in data set [3] was 8.9 µM; in data set [4] it was 10.2 µM. The median effective dose (ED50) in the data set on Rattus norvegicus is 47 µmol/kg.
Turning to `Cc1ccc(-c2cc(C(F)(F)F)nn2-c2ccc(S(N)(=O)=O)cc2)cc1` [CELECOXIB], the figures for the Activity in data set [1], in data set [5] and in data set [6] were 0.4, 20% and 0.5, respectively. Also, the UI in data set [2] worked out at 2.9. The compound also had a median effective dose (ED50) in the data set on Rattus norvegicus of 47 µmol/kg.
Regarding `COC(=O)c1cc(-c2sc(-c3ccccc3)nc2C)nn1-c1ccc(S(N)(=O)=O)cc1`, the Activity in data set [1] was 0.5; in data set [5], 20%; in data set [6], 0.17. For the same compound, in data set [2], the UI is 2.67. Also, the IC50 in data set [3] was found to be 6.02 µM; in data set [4] it was 6.5 µM. The compound also gave an ED50 with Rattus norvegicus of 74 µmol/kg.
Consider `COc1ccc([C@@H]2CC(c3sc(-c4ccccc4)nc3C)=NN2c2ccc(S(N)(=O)=O)cc2)cc1OC`, for which the Activity in data set [1] came to 0.4; in data set [5], 30%; in data set [6], 0.68. The UI in data set [2] is recorded as 4.08. The concentration for half-maximal inhibition (IC50) came out at 7.4 µM in data set [3] and 8.6 µM in data set [4]. It took a dose of 55 µmol/kg to reach the 50% effect level in the data set with Rattus norvegicus (ED50).
With `COc1cccc(/C=C/C(=O)c2sc(-c3ccccc3)nc2C)c1OC`, the Activity in data set [1] turned out to be 0.6; in data set [5], 50%; in data set [6], 1.03. The UI in data set [2] came to 6.63. Further, the half-inhibitory concentration (IC50) in data set [3] came to 6.22 µM; in data set [4] it was 7.2 µM. Besides, in the data set with Rattus norvegicus, the ED50 is 59 µmol/kg.
Turning to `COc1cc([C@@H]2CC(c3sc(-c4ccccc4)nc3C)=NN2c2ccc(S(N)(=O)=O)cc2)cc(OC)c1OC`, the Activity in data set [1] was 0.3; in data set [5], 30%; in data set [6], 0.53. The UI in data set [2] is reported as 3.83. For the same compound, the concentration for half-maximal inhibition (IC50) in data set [3] worked out at 4.7 µM; in data set [4], 5.8 µM. Further, in the data set on Rattus norvegicus, the median effective dose (ED50) was determined as 45 µmol/kg.
As for `COc1cc(/C=C/C(=O)c2sc(-c3ccccc3)nc2C)cc(OC)c1OC`, the Activity amounted to 0.4 in data set [1], 30% in data set [5] and 0.52 in data set [6]. The UI in data set [2] is 3.92. The figures for the IC50 in data set [3] and in data set [4] were 5.8 µM and 6.7 µM, respectively. In addition, the ED50 in the data set with Rattus norvegicus is 45 µmol/kg.
With `COC(=O)c1cc(-c2sc(-c3ccccc3)nc2C)nn1-c1ccc(S(C)(=O)=O)cc1`, the values for the Activity in data set [1], in data set [5] and in data set [6] were 0.2, 20% and 0.28, respectively. Moreover, in data set [2], the UI is listed as 2.48. In addition, the IC50 in data set [3] is 5.9 µM; in data set [4] it was 6.8 µM. In addition, it took a dose of 90 µmol/kg to reach the 50% effect level with Rattus norvegicus (ED50).
As for `CC(=O)Oc1ccccc1C(=O)O` [ASPIRIN], the 50% effect level in the data set with Rattus norvegicus (ED50) was put at a dose of 714 µmol/kg.
As for `Cc1ccc(Cl)c(Nc2ccccc2C(=O)O)c1Cl` [MECLOFENAMATE SODIUM], in data set [3], the IC50 amounted to 5.64 µM.
Regarding `COC(=O)/C(O)=C/C(=O)c1sc(-c2ccccc2)nc1C`, the Activity in data set [1] was 0.4; in data set [5] it was 30%; in data set [6], 0.39. The UI in data set [2] was found to be 3.79.
Regarding `COc1ccc([C@@H]2CC(c3sc(-c4ccccc4)nc3C)=NN2c2ccc(S(C)(=O)=O)cc2)cc1OC`, the Activity was 0.5 in data set [1], 30% in data set [5] and 0.85 in data set [6]. Besides, in data set [2], the UI is reported as 4.35. For the same compound, the IC50 in data set [3] turned out to be 7.4 µM; in data set [4] it was 8.4 µM. In addition, the median effective dose (ED50) with Rattus norvegicus was 52 µmol/kg.
For the compound `COc1ccc(/C=C/C(=O)c2sc(-c3ccccc3)nc2C)cc1OC`, the figures for the Activity in data set [1], in data set [5] and in data set [6] were 0.3, 30% and 0.57, respectively. Besides, in data set [2], the UI was found to be 3.87. In addition, the half-inhibitory concentration (IC50) is 2.8 µM in data set [3] and 3.9 µM in data set [4]. The compound also registered a 50% effective dose (ED50) in the data set with Rattus norvegicus of 80 µmol/kg.
`COc1cc([C@@H]2CC(c3sc(-c4ccccc4)nc3C)=NN2c2ccc(S(C)(=O)=O)cc2)cc(OC)c1OC`: the Activity in data set [1] worked out at 0.6; in data set [5] it was 20%; in data set [6] it was 0.18. For the same compound, the UI in data set [2] stood at 2.78. In addition, the values for the 50% inhibitory concentration (IC50) in data set [3] and in data set [4] were 6.4 µM and 7.5 µM, respectively. The compound also yielded an ED50 in the data set on Rattus norvegicus of 87 µmol/kg.

One may read the IC50 as the concentration that inhibits the measured activity by half. Usually ED50 stands for the dose that gives a 50% effect, or the effect in half of the subjects. Read a low ED50 as an effect at a small dose.
